Experimental data published in PMC6158189, “A pharmacological probe identifies cystathionine β-synthase as a new negative regulator for ferroptosis” (Cell Death & Disease, 2018).

Molecular target: T1, hCBS-FL (Homo sapiens, UniProt P35520)
T1 sequence (P35520 1-551): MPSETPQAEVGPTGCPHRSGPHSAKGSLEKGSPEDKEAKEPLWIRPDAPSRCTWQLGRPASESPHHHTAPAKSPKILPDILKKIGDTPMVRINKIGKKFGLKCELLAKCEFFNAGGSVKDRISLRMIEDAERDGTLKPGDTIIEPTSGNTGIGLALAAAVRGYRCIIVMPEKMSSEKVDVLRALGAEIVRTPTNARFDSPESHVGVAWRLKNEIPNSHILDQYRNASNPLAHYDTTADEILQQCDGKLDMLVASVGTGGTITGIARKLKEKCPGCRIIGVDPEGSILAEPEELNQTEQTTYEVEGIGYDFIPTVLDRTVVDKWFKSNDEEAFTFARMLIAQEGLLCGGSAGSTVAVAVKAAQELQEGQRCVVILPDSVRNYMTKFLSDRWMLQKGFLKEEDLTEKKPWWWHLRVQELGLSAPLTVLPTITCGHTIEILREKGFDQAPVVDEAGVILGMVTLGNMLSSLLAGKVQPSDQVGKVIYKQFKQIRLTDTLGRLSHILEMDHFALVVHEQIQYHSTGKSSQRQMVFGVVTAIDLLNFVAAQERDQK
Experiment: H2S in HEK293T cells transiently expressing hCBS (AzMC probe)
Assay type: cell-based
Settings: 10 μM, 8 h
Method: HEK293T cells were transiently transfected with empty vector (EV, i and ii), hCBS-FL (iii and iv) or hCSE (v and vi) plasmids, followed by incubation with DMSO (i–iii and v) or 10 μM CH004 (iv and vi) for 8 h before staining with 50 μM AzMC, a H2S-specific probe (“Materials and Methods” section). For larger fluorescent and bright-field images, please see Supplementary Figure 4. The expression levels of hCBS or hCSE in HEK293T cells after transient transfections were determined by western blotting using an anti-CBS antibody (3E1, 1:2000; Abnova) or anti-CSE antibody (1:500, GeneTex). The densities of protein bands for hCBS or hCSE in the blots were quantified with the ImageJ software (National Institutes of Health, Bethesda, MD, USA) and expressed as ratios of respective control (EV group). […] The fluorescent images of the H2S (blue) were accordingly quantified (“Materials and Methods” section) with ImageJ. […] A representative fluorescence image from three independent experiments is shown. […]
H2S levels in living cells were detected using a H2S-specific fluorescent probe according to a protocol described previously[31],[55]. […] After incubation with 50 μM AzMC at 37 °C for 30 min, the cells were washed 4 times with PBS, and the fluorescent images were recorded with excitation by 405 nm laser by using a A1Si (Nikon) confocal microscope. […]

SMILES: Cn1nc(Cc2ccccc2)nc2c(=O)n(C)c(=O)nc1-2 [CH004, 3-benzyl-1,6-dimethylpyrimido[5,4-e][1,2,4]triazine-5,7(1H,6H)-dione]
- decrease in H2S: ~ 50%
